From ChEMBL document CHEMBL1201861, “Genomics of Drug Sensitity in Cancer screening data, Wellcome Trust Sanger Institute”

Experiments:
Assay in all cases: cells
SK-NEP-1 = type: functional, cell-based; conditions: Homo sapiens;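 also: growth inhibition of human SK-NEP-1 cells, read out by a cell viability assay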
Description: SANGER: Inhibition of human SK-NEP-1 cell growth in a cell viability assay.

Becker = type: functional, cell-based, Homo sapiens; conditions: Homo sapiens, Becker;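 also: growth inhibition of Becker cells, read out with a cell viability assay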
Description: SANGER: Inhibition of human Becker cell growth in a cell viability assay.

NY = type: functional, cell-based, Homo sapiens; conditions: Homo sapiens, NY
Description: SANGER: Inhibition of human NY cell growth in a cell viability assay.

SW1573 = type: functional, cell-based, Homo sapiens; conditions: Homo sapiens, SW1573;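 also: growth inhibition of SW1573 cells, read out with a cell viability assay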
Description: SANGER: Inhibition of human SW1573 cell growth in a cell viability assay.

MDA-MB-175-VII = type: functional, cell-based, Homo sapiens; conditions: Homo sapiens, MDA-MB-175-VII
RPMI-8226 = type: functional, cell-based; conditions: Homo sapiens
Description: SANGER: Inhibition of human RPMI-8226 cell growth in a cell viability assay.

SK-UT-1 = type: functional, cell-based, Homo sapiens; conditions: Homo sapiens, SK-UT-1;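 also: growth inhibition of SK-UT-1 cells, measured by a cell viability assay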
Description: SANGER: Inhibition of human SK-UT-1 cell growth in a cell viability assay.

MC116 = type: functional, cell-based; conditions: Homo sapiens;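 also: growth inhibition of MC116 cells, read out with a cell viability assay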
Description: SANGER: Inhibition of human MC116 cell growth in a cell viability assay.

D-336MG = type: functional, cell-based, Homo sapiens; conditions: Homo sapiens, D-336MG
Description: SANGER: Inhibition of human D-336MG cell growth in a cell viability assay.

SHP77 = type: functional, cell-based, Homo sapiens, SHP-77; conditions: Homo sapiens, SHP77;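 also: growth inhibition of human SHP-77 cells measured by a cell viability assay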
Description: SANGER: Inhibition of human SHP-77 cell growth in a cell viability assay.

SJSA-1 = type: functional, cell-based, Homo sapiens; conditions: Homo sapiens, SJSA-1;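 also: growth inhibition of human SJSA-1 cells, read out through a cell viability measurement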
Description: SANGER: Inhibition of human SJSA-1 cell growth in a cell viability assay.

P30-OHK = type: functional, cell-based; conditions: Homo sapiens;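 also: growth inhibition of the P30-OHK cell line, read out with a cell viability assay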
Description: SANGER: Inhibition of human P30-OHK cell growth in a cell viability assay.

A498 = type: functional, cell-based, Homo sapiens; conditions: Homo sapiens, A498;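 also: growth inhibition of human A498 cells, read out with a cell viability assay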
Description: SANGER: Inhibition of human A498 cell growth in a cell viability assay.

A4-Fuk = type: functional, cell-based; conditions: Homo sapiens;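 also: growth inhibition of A4-Fuk cells, read out by a cell viability assay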
Description: SANGER: Inhibition of human A4-Fuk cell growth in a cell viability assay.

LS-513 = type: functional, cell-based, Homo sapiens; conditions: Homo sapiens, LS-513
Description: SANGER: Inhibition of human LS-513 cell growth in a cell viability assay.

SCC-15 = type: functional, cell-based, Homo sapiens; conditions: Homo sapiens, SCC-15;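 also: growth inhibition of SCC-15 cells, read out with a cell viability assay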
Description: SANGER: Inhibition of human SCC-15 cell growth in a cell viability assay.

OAW-42 = type: functional, cell-based, Homo sapiens; conditions: Homo sapiens, OAW-42;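 also: growth inhibition of OAW-42 cells, read out with a cell viability assay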
Description: SANGER: Inhibition of human OAW-42 cell growth in a cell viability assay.

NCI-H209 = type: functional, cell-based; conditions: Homo sapiens;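 also: growth inhibition of human NCI-H209 cells, measured by a cell viability assay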
Description: SANGER: Inhibition of human NCI-H209 cell growth in a cell viability assay.

647-V = type: functional, cell-based, Homo sapiens; conditions: Homo sapiens, 647-V;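 also: growth inhibition of 647-V cells, read out with a cell viability assay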
Description: SANGER: Inhibition of human 647-V cell growth in a cell viability assay.

H4 = type: functional, cell-based; conditions: Homo sapiens
Description: SANGER: Inhibition of human H4 cell growth in a cell viability assay.

SF-539 = type: functional, cell-based, Homo sapiens; conditions: Homo sapiens, SF-539;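 also: Read-out is a cell viability assay, with IC50 reflecting inhibition of cell growth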
Description: SANGER: Inhibition of human SF539 cell growth in a cell viability assay.

HCE-4 = type: functional, cell-based, Homo sapiens; conditions: Homo sapiens, HCE-4;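 also: cell viability assay measuring inhibition of growth in the human HCE-4 cell line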
Description: SANGER: Inhibition of human HCE-4 cell growth in a cell viability assay.

LB2241-RCC = type: functional, cell-based, Homo sapiens; conditions: Homo sapiens, LB2241-RCC;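 also: cell viability assay measuring how strongly the cultured human renal carcinoma line is prevented from growing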
Description: SANGER: Inhibition of human LB2241-RCC cell growth in a cell viability assay.

LB831-BLC = type: functional, cell-based, Homo sapiens; conditions: Homo sapiens, LB831-BLC;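 also: growth inhibition of LB831-BLC cells, read out with a cell viability assay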
Description: SANGER: Inhibition of human LB831-BLC cell growth in a cell viability assay.

BB49-HNC = type: functional, cell-based, Homo sapiens; conditions: Homo sapiens, BB49-HNC;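 also: cell viability assay read-out, reported as inhibition of BB49-HNC cell growth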
Description: SANGER: Inhibition of human BB49-HNC cell growth in a cell viability assay.

LB373-MEL-D = type: functional, cell-based, Homo sapiens; conditions: Homo sapiens, LB373-MEL-D;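 also: growth inhibition of the cell line, read out in a cell viability assay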
Description: SANGER: Inhibition of human LB373-MEL-D cell growth in a cell viability assay.

MHH-PREB-1 = type: functional, cell-based; conditions: Homo sapiens;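 also: cell viability assay measuring inhibition of proliferation of human MHH-PREB-1 cells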
Description: SANGER: Inhibition of human MHH-PREB-1 cell growth in a cell viability assay.

MSTO-211H = type: functional, cell-based, Homo sapiens; conditions: Homo sapiens, MSTO-211H
Description: SANGER: Inhibition of human MSTO-211H cell growth in a cell viability assay.

TCC-SUP = type: functional, cell-based, Homo sapiens; conditions: Homo sapiens, TCC-SUP;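 also: growth inhibition of TCC-SUP cells, read out with a cell viability assay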
Description: SANGER: Inhibition of human TCCSUP cell growth in a cell viability assay.

NCI-H1755 = type: functional, cell-based, Homo sapiens; conditions: Homo sapiens, NCI-H1755;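 also: cell viability readout used to measure growth inhibition of NCI-H1755 cells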
Description: SANGER: Inhibition of human NCI-H1755 cell growth in a cell viability assay.

IST-SL1 = type: functional, cell-based, Homo sapiens; conditions: Homo sapiens, IST-SL1;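 also: growth inhibition of human IST-SL1 cells, read out with a cell viability assay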
Description: SANGER: Inhibition of human IST-SL1 cell growth in a cell viability assay.

EW-3 = type: functional, cell-based; conditions: Homo sapiens;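 also: cell viability assay read-out, IC50 reflects inhibition of growth of the EW-3 cells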
Description: SANGER: Inhibition of human EW-3 cell growth in a cell viability assay.

GR-ST = type: functional, cell-based; conditions: Homo sapiens
Description: SANGER: Inhibition of human GR-ST cell growth in a cell viability assay.

COLO-679 = type: functional, cell-based, Homo sapiens; conditions: Homo sapiens, COLO-679
Description: SANGER: Inhibition of human COLO-679 cell growth in a cell viability assay.

EW-24 = type: functional, cell-based; conditions: Homo sapiens;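 also: human EW-24 cancer cell line, growth inhibition read out via a cell viability assay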
Description: SANGER: Inhibition of human EW-24 cell growth in a cell viability assay.

HTC-C3 = type: functional, cell-based, Homo sapiens; conditions: Homo sapiens, HTC-C3;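 also: inhibition of cell growth, read out with a cell viability assay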
Description: SANGER: Inhibition of human HTC-C3 cell growth in a cell viability assay.

HC-1 = type: functional, cell-based; conditions: Homo sapiens;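 also: growth inhibition of HC-1 cells measured by a cell viability assay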
Description: SANGER: Inhibition of human HC-1 cell growth in a cell viability assay.

ML-2 = type: functional, cell-based; conditions: Homo sapiens;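 also: growth inhibition of ML-2 cells, measured with a cell viability readout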
Description: SANGER: Inhibition of human ML-2 cell growth in a cell viability assay.

SNU-449 = type: functional, cell-based, Homo sapiens; conditions: Homo sapiens, SNU-449
Description: SANGER: Inhibition of human SNU-449 cell growth in a cell viability assay.

ATN-1 = type: functional, cell-based; conditions: Homo sapiens;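 also: growth inhibition of human ATN-1 cells, read out with a cell viability assay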
Description: SANGER: Inhibition of human ATN-1 cell growth in a cell viability assay.

DEL = type: functional, cell-based; conditions: Homo sapiens;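 also: growth inhibition of the human DEL cell line, read out with a cell viability assay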
Description: SANGER: Inhibition of human DEL cell growth in a cell viability assay.

YKG-1 = type: functional, cell-based, Homo sapiens; conditions: Homo sapiens, YKG-1;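 also: cell growth inhibition, read out with a viability assay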
Description: SANGER: Inhibition of human YKG-1 cell growth in a cell viability assay.

HL-60 = type: functional, cell-based; conditions: Homo sapiens;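 also: growth inhibition of human HL-60 cells, read out with a cell viability assay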
Description: SANGER: Inhibition of human HL-60 cell growth in a cell viability assay.

G-401 = type: functional, cell-based, Homo sapiens; conditions: Homo sapiens, G-401
Description: SANGER: Inhibition of human G-401 cell growth in a cell viability assay.

SW13 = type: functional, cell-based, Homo sapiens; conditions: Homo sapiens, SW13;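 also: IC50 is inhibition of SW13 cell growth, read out with a cell viability assay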
Description: SANGER: Inhibition of human SW13 cell growth in a cell viability assay.

NCI-H1092 = type: functional, cell-based; conditions: Homo sapiens;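 also: cell growth inhibition measured with a cell viability assay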
Description: SANGER: Inhibition of human NCI-H1092 cell growth in a cell viability assay.

CAL-62 = type: functional, cell-based, Homo sapiens; conditions: Homo sapiens, CAL-62;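 also: growth inhibition of CAL-62 cells, read out with a cell viability assay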
Description: SANGER: Inhibition of human CAL-62 cell growth in a cell viability assay.

BCPAP = type: functional, cell-based, Homo sapiens; conditions: Homo sapiens, BCPAP;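 also: growth inhibition of BCPAP cells, read out in a cell viability assay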
Description: SANGER: Inhibition of human BCPAP cell growth in a cell viability assay.

JVM-3 = type: functional, cell-based; conditions: Homo sapiens;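 also: growth inhibition of human JVM-3 cells, read out with a cell viability assay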
Description: SANGER: Inhibition of human JVM-3 cell growth in a cell viability assay.

HuCCT-1 = type: functional, cell-based, Homo sapiens, HuCCT1; conditions: Homo sapiens, HuCCT-1;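 also: growth inhibition of HuCCT-1 cells, read out by a cell viability assay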
Description: SANGER: Inhibition of human HuCCT1 cell growth in a cell viability assay.

NCI-H1651 = type: functional, cell-based, Homo sapiens; conditions: Homo sapiens, NCI-H1651;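 also: Read-out is a cell viability assay, with IC50 expressing inhibition of NCI-H1651 cell growth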
Description: SANGER: Inhibition of human NCI-H1651 cell growth in a cell viability assay.

A253 cell line = type: functional, cell-based, Homo sapiens; conditions: Homo sapiens, A253;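 also: growth inhibition of A253 cells, read out with a cell viability assay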
Description: SANGER: Inhibition of human A253 cell growth in a cell viability assay.

TGW = type: functional, cell-based; conditions: Homo sapiens;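 also: growth inhibition of human TGW cells, read out with a cell viability assay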
Description: SANGER: Inhibition of human TGW cell growth in a cell viability assay.

CC(=O)O[C@@]12CO[C@@H]1C[C@H](O)[C@@]1(C)C(=O)[C@H](O)C3=C(C)[C@@H](OC(=O)[C@H](O)[C@@H](NC(=O)OC(C)(C)C)c4ccccc4)C[C@@](O)([C@@H](OC(=O)c4ccccc4)[C@H]21)C3(C)C [DOCETAXEL]
IC50 (SK-NEP-1): 1.76 nM
IC50 (Becker): 1.83 nM
IC50 (NY): > 10 nM
IC50 (SW1573): 5.54 nM
IC50 (MDA-MB-175-VII): > 10 nM
IC50 (RPMI-8226): 4.97 nM
IC50 (SK-UT-1): 2.26 nM
IC50 (MC116): > 10 nM
IC50 (D-336MG): 1.69 nM
IC50 (SHP77): > 10 nM
IC50 (SJSA-1): 0.615 nM
IC50 (P30-OHK): > 10 nM
IC50 (A498): 0.278 nM
IC50 (A4-Fuk): 3.9 nM
IC50 (LS-513): > 10 nM
IC50 (SCC-15): 6.89 nM
IC50 (OAW-42): > 10 nM
IC50 (NCI-H209): 2.86 nM
IC50 (647-V): 1.84 nM
IC50 (H4): 1.96 nM
IC50 (SF-539): 0.302 nM
IC50 (HCE-4): 2.47 nM
IC50 (LB2241-RCC): 5.31 nM
IC50 (LB831-BLC): 1.48 nM
IC50 (BB49-HNC): 2.12 nM
IC50 (LB373-MEL-D): > 10 nM
IC50 (MHH-PREB-1): 1.89 nM
IC50 (MSTO-211H): > 10 nM
IC50 (TCC-SUP): > 10 nM
IC50 (NCI-H1755): 6.24 nM
IC50 (IST-SL1): 3.12 nM
IC50 (EW-3): 0.745 nM
IC50 (GR-ST): > 10 nM
IC50 (COLO-679): > 10 nM
IC50 (EW-24): 4.33 nM
IC50 (HTC-C3): 2.85 nM
IC50 (HC-1): 6.56 nM
IC50 (ML-2): > 10 nM
IC50 (SNU-449): > 10 nM
IC50 (ATN-1): > 10 nM
IC50 (DEL): 3.01 nM
IC50 (YKG-1): 0.707 nM
IC50 (HL-60): 3.59 nM
IC50 (G-401): 1.27 nM
IC50 (SW13): 1.69 nM
IC50 (NCI-H1092): > 10 nM
IC50 (CAL-62): 0.185 nM
IC50 (BCPAP): 0.947 nM
IC50 (JVM-3): 2.33 nM
IC50 (HuCCT-1): 5.68 nM
IC50 (NCI-H1651): 5.4 nM

C[C@]1(O)C[C@@H](c2nc(-c3ccc4ccc(-c5ccccc5)nc4c3)c3c(N)nccn32)C1 [LINSITINIB]
IC50 (SK-NEP-1): 602 nM
IC50 (A253 cell line): > 2560 nM
IC50 (Becker): > 2560 nM
IC50 (NY): > 2560 nM
IC50 (SW1573): > 2560 nM
IC50 (MDA-MB-175-VII): > 2560 nM
IC50 (RPMI-8226): > 2560 nM
IC50 (SK-UT-1): > 2560 nM
IC50 (MC116): > 2560 nM
IC50 (SHP77): > 2560 nM
IC50 (SJSA-1): 1040 nM
IC50 (P30-OHK): > 2560 nM
IC50 (A498): > 2560 nM
IC50 (A4-Fuk): 28.1 nM
IC50 (LS-513): 2050 nM
IC50 (SCC-15): > 2560 nM
IC50 (OAW-42): > 2560 nM
IC50 (NCI-H209): > 2560 nM
IC50 (647-V): > 2560 nM
IC50 (H4): > 2560 nM
IC50 (SF-539): > 2560 nM
IC50 (HCE-4): > 2560 nM
IC50 (LB2241-RCC): > 2560 nM
IC50 (LB831-BLC): > 2560 nM
IC50 (BB49-HNC): > 2560 nM
IC50 (LB373-MEL-D): > 2560 nM
IC50 (MHH-PREB-1): > 2560 nM
IC50 (MSTO-211H): > 2560 nM
IC50 (TCC-SUP): > 2560 nM
IC50 (NCI-H1755): > 2560 nM
IC50 (IST-SL1): > 2560 nM
IC50 (EW-3): 2100 nM
IC50 (TGW): > 2560 nM
IC50 (GR-ST): > 2560 nM
IC50 (COLO-679): > 2560 nM
IC50 (EW-24): > 2560 nM
IC50 (HTC-C3): > 2560 nM
IC50 (HC-1): > 2560 nM
IC50 (ML-2): 159 nM
IC50 (SNU-449): > 2560 nM
IC50 (ATN-1): > 2560 nM
IC50 (DEL): > 2560 nM
IC50 (YKG-1): > 2560 nM
IC50 (HL-60): 1670 nM
IC50 (G-401): 182 nM
IC50 (SW13): > 2560 nM
IC50 (NCI-H1092): > 2560 nM
IC50 (CAL-62): > 2560 nM
IC50 (BCPAP): > 2560 nM
IC50 (JVM-3): > 2560 nM
IC50 (HuCCT-1): > 2560 nM
IC50 (NCI-H1651): > 2560 nM
